From the supplement of paper PMC10307832

Assays:
Assay in all cases: relative viability (nuclei count vs DMSO), 5 days (fraction); higher = more cells survive
Motesanib = compound: CC1(C)CNc2cc(NC(=O)c3cccnc3NCc3ccncc3)ccc21 [Motesanib]
In short: (§1)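 For viability, nuclei in each treated well were divided by nuclei in vehicle wells and the median across plates was taken. Lung cancer cell lines in 1536-well plates were pinned with five library-drug doses (not always all listed) spaced by √10, cultured 5 days without medium change, and imaged at 4× after Hoechst staining, with plates passing only at control CV below 25% and at least one doubling.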

[1] = compound: C[C@@]1(C(=O)Nc2ccc(F)nc2)CCCN1c1nc(Nc2cc(C3CC3)n[nH]2)c2cccn2n1
In short: as §1

Motesanib + Navitoclax = compound: CC1(C)CNc2cc(NC(=O)c3cccnc3NCc3ccncc3)ccc21 [Motesanib] + CC1(C)CCC(c2ccc(Cl)cc2)=C(CN2CCN(c3ccc(C(=O)NS(=O)(=O)c4ccc(N[C@H](CCN5CCOCC5)CSc5ccccc5)c(S(=O)(=O)C(F)(F)F)c4)cc3)CC2)C1 [Navitoclax] (partner 0.5 µM)
In short: (§2)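 Lung cancer cell lines in 1536-well plates were dosed by pin tool the day after seeding, either with one drug alone or with a fixed anchor-drug dose plus five library-drug doses (not always all listed) in √10 steps. After 5 days, cells were fixed and their nuclei stained in one step (final 0.05% Triton X-100, 1% formaldehyde, 1 ug/ml Hoechst), then counted on 4× images. Relative viability is the nuclei count in treated wells divided by that in vehicle wells. Values are medians of duplicate plates.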

[2] = compound: C[C@@]1(C(=O)Nc2ccc(F)nc2)CCCN1c1nc(Nc2cc(C3CC3)n[nH]2)c2cccn2n1 + N=C(N)NC(=N)NCCc1ccccc1 [Phenformin] (partner 250 µM)
In short: as §2

Cell Line | relative viability (Motesanib; 0.01 µM) | relative viability (Motesanib; 0.03162 µM) | relative viability (Motesanib; 0.1 µM) | relative viability (Motesanib; 0.3162 µM) | relative viability (Motesanib; 1 µM) | relative viability ([1]; 0.04 µM) | relative viability ([1]; 0.1265 µM) | relative viability ([1]; 0.4 µM) | relative viability ([1]; 1.265 µM) | relative viability (Motesanib + Navitoclax; first compound 0.01 µM) | relative viability (Motesanib + Navitoclax; first compound 0.03162 µM) | relative viability (Motesanib + Navitoclax; first compound 0.1 µM) | relative viability (Motesanib + Navitoclax; first compound 0.3162 µM) | relative viability (Motesanib + Navitoclax; first compound 1 µM) | relative viability ([2]; first compound 0.04 µM) | relative viability ([2]; first compound 0.1265 µM) | relative viability ([2]; first compound 0.4 µM) | relative viability ([2]; first compound 1.265 µM)
NCI-H2170 | 0.928 | 0.948 | 0.939 | 1.01 | 1.02 | 0.945 | 0.994 | 0.958 | 0.976 | 0.574 | 0.773 | 0.545 | 0.676 | 0.537 | 0.432 | 0.396 | 0.419 | 0.357
NCI-H2347 | 1.01 | 1.04 | 1.15 | 0.983 | 1.04 | 1.03 | 0.922 | 0.908 | 0.967 | 0.816 | 0.751 | 0.712 | 0.882 | 1.02 | 0.368 | 0.495 | 0.312 | 0.41
NCI-H1993 | 0.993 | 0.941 | 0.977 | 0.963 | 1.06 | 0.732 | 0.696 | 0.649 | 0.686 | 1.15 | 0.882 | 0.912 | 0.921 | 0.802 | 0.495 | 0.657 | 0.541 | 0.55
NCI-H322M | 1.04 | 0.993 | 0.988 | 0.946 | 0.954 | 0.853 | 0.602 | 0.644 | 0.728 | 1.19 | 1.32 | 1.33 | 1.2 | 1.23 | 0.686 | 0.561 | 0.531 | 0.499
NCI-H838 | 1.04 | 0.962 | 0.985 | 1.02 | 0.932 | 0.942 | 0.76 | 0.693 | 0.736 | 1.25 | 1.21 | 1.09 | 1.25 | 1.14 | 0.563 | 0.449 | 0.308 | 0.37
HARA | 0.959 | 1.1 | 0.909 | 1.09 | 0.997 | 0.815 | 1.01 | 0.756 | 0.723 | 1.11 | 1.18 | 1.21 | 1.2 | 1.22 | 0.431 | 0.386 | 0.395 | 0.442
NCI-H2087 | 1.14 | 0.887 | 1.06 | 1.25 | 1.37 | 0.954 | 0.815 | 0.868 | 0.819 | 0.92 | 1.14 | 0.997 | 0.902 | 1.03 | 0.437 | 0.342 | 0.313 | 0.237
NCI-H1437 | 0.964 | 0.958 | 0.998 | 1 | 0.957 | 1.04 | 0.918 | 0.679 | 0.714 | 1.09 | 1.05 | 1.07 | 1.11 | 1.13 | 0.257 | 0.253 | 0.214 | 0.171
NCI-H1792 | 0.742 | 0.805 | 0.908 | 0.918 | 1.12 | 0.602 | 0.423 | 0.383 | 0.295 | 0.612 | 0.605 | 0.584 | 0.578 | 0.703 | 0.145 | 0.0792 | 0.208 | 0.189
ChaGo-K-1 | 0.973 | 0.931 | 0.932 | 0.999 | 1.04 | 0.955 | 0.826 | 0.899 | 0.914 |  | 0.691 | 0.862 | 1.03 | 1.21 | 0.403 | 0.283 | 0.296 | 0.4
COR-L23 | 1.01 | 0.962 | 1.03 | 1.04 | 1.07 | 1.13 | 0.985 | 0.886 | 0.774 | 1.01 | 0.936 | 1.08 | 1.06 | 0.972 | 0.454 | 0.407 | 0.406 | 0.241
COR-L 105 | 1.05 | 0.875 | 0.905 | 0.957 | 0.997 | 1.01 | 0.662 | 0.781 | 0.681 | 1.01 | 0.805 | 0.853 | 0.818 | 0.851 | 0.422 | 0.368 | 0.346 | 0.393
LK-2 | 1.05 | 0.945 | 0.914 | 1.05 | 1.02 | 0.623 | 1.06 | 0.508 | 0.636 | 0.915 | 0.877 | 0.811 | 0.911 | 0.894 | 0.251 | 0.178 | 0.166 | 0.202
201T | 0.982 | 0.971 | 1.02 | 0.987 | 0.963 | 0.955 | 0.833 | 0.682 | 0.796 | 1.2 | 1.21 | 1.21 | 1.19 | 1.2 | 0.346 | 0.355 | 0.32 | 0.36
HCC-44 | 0.978 | 0.957 | 1.02 | 1.04 | 0.989 | 0.99 | 0.904 | 0.716 | 0.737 | 0.986 | 0.96 | 0.994 | 1.04 | 0.997 | 0.178 | 0.116 | 0.134 | 0.0862
NCI-H596 | 1.2 | 0.921 | 0.928 | 0.908 | 0.964 | 1.02 | 0.846 | 0.902 | 0.939 | 0.962 | 0.893 | 0.9 | 0.879 | 1.1 | 0.649 | 0.69 | 0.738 | 0.763
H3255 | 0.905 | 1.04 | 0.978 | 1.05 | 1.01 | 1.05 | 0.954 | 0.931 | 0.882 | 0.507 | 0.603 | 0.544 | 0.506 | 0.529 | 0.298 | 0.372 | 0.346 | 0.332
